# Laboratory results: the NIST ThermoML archive (doi:10.1016/j.tca.2012.08.009)
# Numbers after ± are expanded uncertainties.
# Key:
# [1] = 298.15 K, 101 kPa, Liquid; for viscosity: Capillary tube (Ostwald / Ubbelohde) method; for speed of sound: Linear variable-path acoustic interferometer; for mass density: Vibrating tube method
# [2] = refractive index (Na D-line) (dimensionless); settings: 298.15 K; 101.33 kPa; Liquid; Standard Abbe refractometry
# [3] = wn = mass fraction of the nth substance listed; settings: 298.15 K, 101 kPa, Liquid; for viscosity: Capillary tube (Ostwald / Ubbelohde) method; for speed of sound: Linear variable-path acoustic interferometer; for mass density: Vibrating tube method
# [4] = refractive index (Na D-line) (dimensionless); wn = mass fraction of the nth substance listed; settings: 298.15 K, 101 kPa, Liquid, Standard Abbe refractometry
# [5] = cn = amount concentration of the nth substance listed, in mol/dm3; settings: 298.15 K, 101 kPa, Liquid; for molar conductivity: Alternating current cell with electrodes; for viscosity: Capillary tube (Ostwald / Ubbelohde) method; for speed of sound: Linear variable-path acoustic interferometer; for mass density: Vibrating tube method
# [6] = refractive index (Na D-line) (dimensionless); cn = amount concentration of the nth substance listed, in mol/dm3; settings: 298.15 K, 101 kPa, Liquid, Standard Abbe refractometry
smiles,measurement,setting,value
"C1COCO1 [1,3-dioxolane]",viscosity,[1],0.597 ± 0.009 mPa·s
same,speed of sound,[1],1338.9 ± 2.5 m/s
same,mass density,[1],1058.72 ± 0.96 kg/m3
same,refractive index,[2],1.3974 ± 0.0006
"C1COCO1 [1,3-dioxolane] + CC#N",viscosity,[3]; w2 = 0,0.597 ± 0.009 mPa·s
same,viscosity,[3]; w2 = 0.25,0.533 ± 0.009 mPa·s
same,viscosity,[3]; w2 = 0.5,0.471 ± 0.008 mPa·s
same,viscosity,[3]; w2 = 0.75,0.407 ± 0.008 mPa·s
same,speed of sound,[3]; w2 = 0,1338.9 ± 2.5 m/s
same,speed of sound,[3]; w2 = 0.25,1324.6 ± 2.5 m/s
same,speed of sound,[3]; w2 = 0.5,1310.2 ± 2.4 m/s
same,speed of sound,[3]; w2 = 0.75,1295.8 ± 2.4 m/s
same,mass density,[3]; w2 = 0,1058.72 ± 0.96 kg/m3
same,mass density,[3]; w2 = 0.25,979.95 ± 0.82 kg/m3
same,mass density,[3]; w2 = 0.5,909.57 ± 0.75 kg/m3
same,mass density,[3]; w2 = 0.75,841.47 ± 0.67 kg/m3
same,refractive index,[4]; w2 = 0,1.3974 ± 0.0006
same,refractive index,[4]; w2 = 0.25,1.3835 ± 0.0006
same,refractive index,[4]; w2 = 0.5,1.3696 ± 0.0006
same,refractive index,[4]; w2 = 0.75,1.3557 ± 0.0006
CC#N [acetonitrile],viscosity,[1],0.343 ± 0.007 mPa·s
same,speed of sound,[1],1281.5 ± 2.4 m/s
same,mass density,[1],776.74 ± 0.61 kg/m3
same,refractive index,[2],1.3418 ± 0.0006
CC#N [acetonitrile] + C1COCO1,viscosity,[3]; w1 = 1,0.343 ± 0.007 mPa·s
same,speed of sound,[3]; w1 = 1,1281.5 ± 2.4 m/s
same,mass density,[3]; w1 = 1,776.74 ± 0.61 kg/m3
same,refractive index,[4]; w1 = 1,1.3418 ± 0.0006
[Br-].[Li+] [lithium bromide] + C1COCO1,molar conductivity,[5]; c1 = 2.686e-05,0.002392 ± 1.4e-05 S·m2/mol
same,molar conductivity,[5]; c1 = 3.525e-05,0.002226 ± 1.3e-05 S·m2/mol
same,molar conductivity,[5]; c1 = 4.178e-05,0.002164 ± 1.3e-05 S·m2/mol
same,molar conductivity,[5]; c1 = 4.7e-05,0.002136 ± 1.3e-05 S·m2/mol
same,molar conductivity,[5]; c1 = 5.127e-05,0.002128 ± 1.3e-05 S·m2/mol
same,molar conductivity,[5]; c1 = 5.483e-05,0.002127 ± 1.3e-05 S·m2/mol
same,molar conductivity,[5]; c1 = 5.868e-05,0.002129 ± 1.3e-05 S·m2/mol
same,molar conductivity,[5]; c1 = 6.267e-05,0.002145 ± 1.3e-05 S·m2/mol
same,molar conductivity,[5]; c1 = 6.635e-05,0.002167 ± 1.3e-05 S·m2/mol
same,molar conductivity,[5]; c1 = 7.115e-05,0.002199 ± 1.3e-05 S·m2/mol
same,molar conductivity,[5]; c1 = 7.52e-05,0.002233 ± 1.3e-05 S·m2/mol
same,molar conductivity,[5]; c1 = 7.917e-05,0.002272 ± 1.4e-05 S·m2/mol
same,viscosity,[5]; c1 = 0.0142,0.599 ± 0.009 mPa·s
same,viscosity,[5]; c1 = 0.0284,0.603 ± 0.009 mPa·s
same,viscosity,[5]; c1 = 0.0426,0.607 ± 0.009 mPa·s
same,viscosity,[5]; c1 = 0.0569,0.612 ± 0.009 mPa·s
same,viscosity,[5]; c1 = 0.0712,0.617 ± 0.009 mPa·s
same,viscosity,[5]; c1 = 0.0855,0.622 ± 0.009 mPa·s
same,speed of sound,[5]; c1 = 0.0142,1347.4 ± 2.2 m/s
same,speed of sound,[5]; c1 = 0.0284,1366.8 ± 2.2 m/s
same,speed of sound,[5]; c1 = 0.0426,1394.6 ± 2.3 m/s
same,speed of sound,[5]; c1 = 0.0569,1430.9 ± 2.3 m/s
same,speed of sound,[5]; c1 = 0.0712,1475.6 ± 2.4 m/s
same,speed of sound,[5]; c1 = 0.0855,1531.8 ± 2.4 m/s
same,mass density,[5]; c1 = 0.0142,1058.79 ± 0.68 kg/m3
same,mass density,[5]; c1 = 0.0284,1059 ± 0.68 kg/m3
same,mass density,[5]; c1 = 0.0426,1059.29 ± 0.68 kg/m3
same,mass density,[5]; c1 = 0.0569,1059.65 ± 0.68 kg/m3
same,mass density,[5]; c1 = 0.0712,1060.05 ± 0.68 kg/m3
same,mass density,[5]; c1 = 0.0855,1060.52 ± 0.68 kg/m3
same,refractive index,[6]; c1 = 0.0142,1.3984 ± 0.0006
same,refractive index,[6]; c1 = 0.0284,1.3993 ± 0.0006
same,refractive index,[6]; c1 = 0.0426,1.4001 ± 0.0006
same,refractive index,[6]; c1 = 0.0569,1.4008 ± 0.0006
same,refractive index,[6]; c1 = 0.0712,1.4014 ± 0.0006
same,refractive index,[6]; c1 = 0.0855,1.402 ± 0.0006
[Cl-].[Li+] [lithium chloride] + C1COCO1,molar conductivity,[5]; c1 = 3.525e-05,0.003047 ± 1.8e-05 S·m2/mol
same,molar conductivity,[5]; c1 = 3.871e-05,0.002972 ± 1.8e-05 S·m2/mol
same,molar conductivity,[5]; c1 = 4.453e-05,0.002875 ± 1.7e-05 S·m2/mol
same,molar conductivity,[5]; c1 = 4.924e-05,0.002803 ± 1.7e-05 S·m2/mol
same,molar conductivity,[5]; c1 = 5.609e-05,0.00273 ± 1.6e-05 S·m2/mol
same,molar conductivity,[5]; c1 = 6.159e-05,0.002693 ± 1.6e-05 S·m2/mol
same,molar conductivity,[5]; c1 = 6.635e-05,0.002673 ± 1.6e-05 S·m2/mol
same,molar conductivity,[5]; c1 = 7.162e-05,0.002663 ± 1.6e-05 S·m2/mol
same,molar conductivity,[5]; c1 = 7.442e-05,0.002672 ± 1.6e-05 S·m2/mol
same,molar conductivity,[5]; c1 = 7.691e-05,0.002715 ± 1.6e-05 S·m2/mol
same,molar conductivity,[5]; c1 = 7.721e-05,0.002746 ± 1.6e-05 S·m2/mol
same,molar conductivity,[5]; c1 = 7.779e-05,0.002778 ± 1.7e-05 S·m2/mol
same,viscosity,[5]; c1 = 0.0142,0.597 ± 0.009 mPa·s
same,viscosity,[5]; c1 = 0.0284,0.598 ± 0.009 mPa·s
same,viscosity,[5]; c1 = 0.0426,0.601 ± 0.009 mPa·s
same,viscosity,[5]; c1 = 0.0568,0.603 ± 0.009 mPa·s
same,viscosity,[5]; c1 = 0.071,0.606 ± 0.009 mPa·s
same,viscosity,[5]; c1 = 0.0852,0.608 ± 0.009 mPa·s
same,speed of sound,[5]; c1 = 0.0142,1344.6 ± 2.2 m/s
same,speed of sound,[5]; c1 = 0.0284,1356.8 ± 2.2 m/s
same,speed of sound,[5]; c1 = 0.0426,1373.9 ± 2.2 m/s
same,speed of sound,[5]; c1 = 0.0568,1394.7 ± 2.2 m/s
same,speed of sound,[5]; c1 = 0.071,1420.8 ± 2.3 m/s
same,speed of sound,[5]; c1 = 0.0852,1451.4 ± 2.3 m/s
same,mass density,[5]; c1 = 0.0142,1058.75 ± 0.68 kg/m3
same,mass density,[5]; c1 = 0.0284,1058.9 ± 0.68 kg/m3
same,mass density,[5]; c1 = 0.0426,1059.11 ± 0.68 kg/m3
same,mass density,[5]; c1 = 0.0568,1059.4 ± 0.68 kg/m3
same,mass density,[5]; c1 = 0.071,1059.75 ± 0.68 kg/m3
same,mass density,[5]; c1 = 0.0852,1060.14 ± 0.68 kg/m3
same,refractive index,[6]; c1 = 0.0142,1.398 ± 0.0006
same,refractive index,[6]; c1 = 0.0284,1.3988 ± 0.0006
same,refractive index,[6]; c1 = 0.0426,1.3994 ± 0.0006
same,refractive index,[6]; c1 = 0.0568,1.4 ± 0.0006
same,refractive index,[6]; c1 = 0.071,1.4005 ± 0.0006
same,refractive index,[6]; c1 = 0.0852,1.401 ± 0.0006
[I-].[Li+] [lithium iodide] + C1COCO1,molar conductivity,[5]; c1 = 8.17e-06,0.001792 ± 1.1e-05 S·m2/mol
same,molar conductivity,[5]; c1 = 1.498e-05,0.000612 ± 4e-06 S·m2/mol
same,molar conductivity,[5]; c1 = 2.075e-05,0.000192 ± 1e-06 S·m2/mol
same,molar conductivity,[5]; c1 = 2.568e-05,0.000191 ± 1e-06 S·m2/mol
same,molar conductivity,[5]; c1 = 2.997e-05,0.000418 ± 3e-06 S·m2/mol
same,molar conductivity,[5]; c1 = 3.702e-05,0.000994 ± 6e-06 S·m2/mol
same,molar conductivity,[5]; c1 = 4.495e-05,0.001751 ± 1.1e-05 S·m2/mol
same,molar conductivity,[5]; c1 = 5.081e-05,0.00241 ± 1.4e-05 S·m2/mol
same,molar conductivity,[5]; c1 = 5.66e-05,0.003074 ± 1.8e-05 S·m2/mol
same,molar conductivity,[5]; c1 = 6.421e-05,0.003828 ± 2.3e-05 S·m2/mol
same,molar conductivity,[5]; c1 = 6.958e-05,0.004382 ± 2.6e-05 S·m2/mol
same,molar conductivity,[5]; c1 = 7.293e-05,0.004735 ± 2.8e-05 S·m2/mol
same,viscosity,[5]; c1 = 0.0142,0.601 ± 0.009 mPa·s
same,viscosity,[5]; c1 = 0.0284,0.607 ± 0.009 mPa·s
same,viscosity,[5]; c1 = 0.0427,0.614 ± 0.009 mPa·s
same,viscosity,[5]; c1 = 0.057,0.621 ± 0.009 mPa·s
same,viscosity,[5]; c1 = 0.0714,0.628 ± 0.009 mPa·s
same,viscosity,[5]; c1 = 0.0858,0.635 ± 0.009 mPa·s
same,speed of sound,[5]; c1 = 0.0142,1350.6 ± 2.2 m/s
same,speed of sound,[5]; c1 = 0.0284,1377.7 ± 2.3 m/s
same,speed of sound,[5]; c1 = 0.0427,1416.8 ± 2.3 m/s
same,speed of sound,[5]; c1 = 0.057,1469.7 ± 2.4 m/s
same,speed of sound,[5]; c1 = 0.0714,1539.7 ± 2.6 m/s
same,speed of sound,[5]; c1 = 0.0858,1630.2 ± 2.7 m/s
same,mass density,[5]; c1 = 0.0142,1058.82 ± 0.68 kg/m3
same,mass density,[5]; c1 = 0.0284,1059.06 ± 0.68 kg/m3
same,mass density,[5]; c1 = 0.0427,1059.4 ± 0.68 kg/m3
same,mass density,[5]; c1 = 0.057,1059.82 ± 0.68 kg/m3
same,mass density,[5]; c1 = 0.0714,1060.32 ± 0.68 kg/m3
same,mass density,[5]; c1 = 0.0858,1060.86 ± 0.68 kg/m3
same,refractive index,[6]; c1 = 0.0142,1.3988 ± 0.0006
same,refractive index,[6]; c1 = 0.0284,1.3997 ± 0.0006
same,refractive index,[6]; c1 = 0.0427,1.4004 ± 0.0006
same,refractive index,[6]; c1 = 0.057,1.4011 ± 0.0006
same,refractive index,[6]; c1 = 0.0714,1.4018 ± 0.0006
same,refractive index,[6]; c1 = 0.0858,1.4024 ± 0.0006
